The results in this text go back to publication PMC5663395, “Chemical Validation of Methionyl-tRNA Synthetase as a Druggable Target in Leishmania donovani” (ACS Infectious Diseases, 2017).

pEC50: −log10 of the molar value. Where two headings read alike, the source gives them in different places.

Assay [1] relates to protein synthesis in Leishmania tarentolae cell extract. Kind of assay: Leishmania tarentolae in vitro translation (eGFP expression in cell extract). Type of assay: biochemical. The settings on record: L. tarentolae extract, read-out: EC50 inhibition of eGFP protein synthesis. The method, then:
Crystals of TbMetRS:Met were obtained by incubating TbMetRS with 10 mM methionine and 1 mM TCEP before crystallisation by sitting drop vapour diffusion against a reservoir solution containing 2.0-2.3 M Ammonium Sulphate, 0.2 M NaCl, 0.1 M Na Cacodylate pH 6.0-6.6. Single crystals grew after 3-4 days incubation at 18 °C. To obtain ternary TbMetRS:Met:Ligand complexes, TbMetRS:Met crystals were soaked for 10-30 seconds in a 10 μl drop consisting of 1 μl of ligand (20 mM in 20% DMSO), 4 μl reservoir solution and 5 μl glycerol. Crystals were flash frozen immediately in liquid nitrogen in preparation for data collection.
Diffraction data were measured at Diamond Light Source beamline I02. […]
Protein translation in a Leishmania cell extract was studied using a commercially available cell-free protein expression kit (Jena Bioscience). Reactions were carried out in black 384-well, small-volume plates (Greiner) in 10 µl reaction volumes containing 7 µl L. tarentolae cell extract, 1 µl eGFP DNA template and 2 µl nuclease free water (‘no DNA’ wells were included as negative controls). eGFP expression was monitored over time using a BMG PheraStar plate reader (Excitation 485 nm; […]
The effect of DDD806905 on mitochondrial protein synthesis was determined by BioDuro using the MitoBiogenesisTM In-Cell ELISA Kit (Abcam). […] In the assay the levels of SDH-A and COX-1 are measured in H9C2 cells. […]

For a further assay, the system named is THP-1 lysosomes. Kind of assay: Lysosomotropism assay (LysoTracker Red competition). Type of assay: cell-based, human. As to conditions: PMA-differentiated THP-1 cells, 30 min. The method, then:
calculated, both in terms of pEC50 values. MIC (minimum inhibitory concentration) values are defined as the lowest concentration tested at which maximal inhibition is reached.
THP-1 cells were differentiated in 96-well plates with PMA as described above. Following differentiation the cells were treated for 30 min with dose-response curves of test compounds in presence of 100 nM LysoTracker Red DND-99 (Thermo Fisher) and 5 µg/ml Hoechst 33342. Next cells were washed 3 times with Hanks Buffered Saline Solution (Gibco) and imaged on a Perkin Elmer Operetta system. An image analysis algorithm to measure mean Lysotracker Red DND-99 intensity per cell was developed in Columbus. Mean Intensity was normalised using a no dye control (100% effect) and DMSO treated wells stained with Lysotracker Red DND-99 (0% effect control). Dose-response curves were fitted for the test compounds using a four-parameter equation (equation 5 above) and constrained to 0 and 100% where necessary.
To measure the pKa of DDD806905, a fast UV-metric method was performed using a Sirius T3 instrument (Sirius Analytical, U.K.). The calculation of the pKa was determined using the Sirius T3 refine software (Sirius Analytical, U.K.). In brief, the UV-metric pKa method is based on measuring pH during an acid-base titration and monitoring UV absorbance shift. The ionisation curve (Bjerrum curve) was then used to determine the pH where exactly 50 % of neutral and 50 % of ionised species was present. DDD806905 must be fully dissolved throughout the titration and so the titration is set to start at the pH where DDD806905 is in its fully ionised state. The appearance of precipitate was monitored throughout the experiment by a turbidity sensing device. […] The pKas of DDD806905 was determined at the pH where there was maximal change in UV absorbance with respect to pH. […]
LogD7.4 values were quantified using a Sirius T3 instrument (Sirius Analytical, U.K.). […] The instrument software calculated the pH of each data point using mass and charge balance equations and then fitted this theoretical data to the experimental data. […]

With `Cl.Cl.O=c1nc(NCCCNCc2cc3c(Cl)cc(Cl)cc3[nH]2)[nH]c2ccccc12` [DDD806905, 2-((3-(((4,6-dichloro-1H-indol-2-yl)methyl)amino)propyl)amino)quinazolin-4(1H)-one dihydrochloride], the negative-log EC50 (pEC50) (commonly −log10 of the EC50, conventionally taken in molar units) is 4.92 in assay [1] (additional 1.5 mM methionine) and 5.66 in assay [1] (no additional methionine). The “competition with lysotracker red accumulation in THP-1 lysosomes” value in the assay on THP-1 lysosomes is given as “did compete with lysotracker red accumulation”.
